Experimental data: patent US20240027453A1, “METHOD FOR DETECTION AND QUANTITATIVE MONITORING OF INFECTIONS WITH HERPESVIRUSES” (The Trustees of Princeton University, priority 2020, published 2024)
Where two headings read alike, the source gives them in different places.

Tested on: HCMV
Type: cell-based
Experimental: In example herpesvirus PRM assay methods shown herein, cell pellets were lysed in 2% SDS, 100 mM NaCl, 0.5 mM EDTA, 50 mM Tris, pH 8.2, and 50 μg of protein was reduced and alkylated with 25 mM TCEP and 50 mM CAM respectively for 20 min at 70° C. Proteins were then precipitated via methanol chloroform precipitation (Wessel & Flugg, Anal Biochem. 138(1):141-143, 1984), resuspended in 50 mM HEPES, pH 8.2 and digested overnight with trypsin (50:1 protein:enzyme w/w ratio). Digested peptides were desalted by SDB-RPS StageTip as previously described (Lum et al., Cell Syst., 7(6):[…], 2018; Greco et al., Methods Mol Biol 1410:39-63, 2016; Federspiel & Cristea, Methods Mol Biol., 1977:115-143, 2019).
Peptides (1.0 μg on column) were analyzed by LC-MS/MS using a Dionex Ultimate 3000 UHPLC coupled online to an EASYSpray ion source and a Q Exactive HF. Peptides were separated on an EASYSpray C18 column (75 μm×25 cm) heated to 50° C. using a linear gradient of 5% B to 32% B over 60 min at a flow rate of 250 nL/min and were ionized at 1.7 kv. Mobile phase A consisted of 0.1% FA in H2O and mobile phase B consisted of 0.1% FA, 2.9% H2O in ACN.
The PRM method was controlled by a peptide inclusion list with retention time windows of 6 min for selected precursor ions.
The PRM assay was developed and analyzed using the open-source software Skyline (Maclean et al., Bioinformatics 26(7):966-968, 2010). Summed area under the curve of 3-4 transitions per peptide was used for quantitation. Targeted peptides were normalized to host protein loading control peptides. Peptide values for each sample were scaled to the average of each peptide across all runs. The average of multiple peptides was used as the inferred value for the protein measurement when more than one peptide was quantified (Federspiel et al., PLoS Biol. 17(9):e3000437. Doi: 10.1371/journal.pbio.3000437). PRM quantitation data were graphed using the Python Seaborn and Matplotlib libraries.
MRC5 primary human fibroblasts (HFs) (ATCC CCL-171) were used as the model system for HSV-1 and HCMV infections and were cultured in complete growth medium (DMEM supplemented with 10% fetal bovine serum and 1% penicillin-streptomycin antibiotics) at 37° C. and 5% CO2. iSLK.219 cells harboring latent KSHV (a gift from Dr. Britt Glaunsinger, University of California, Berkeley) were grown in complete growth medium supplemented with 500 μg/ml hygromycin (ThermoFisher Scientific, 10687010) at 37° C. and 5% CO2. All cells were used for experiments within a maximum of 10 passages.
Wild type HSV-1 strain 17+ (a gift from Beate Sodeik, Hannover Medical School, Hannover, Germany) was propagated as previously described (Diner et al., 2015). Briefly, PO stocks were generated by electroporating pBAC-HSV-1 into U-2 OS cells. […] In a similar manner, wild type HCMV strain AD169 was produced from BAC electroporation into HFs and working stocks were propagated by infecting HFs at a low level. In both cases, cell-associated virus was released by sonication, combined with supernatant virus, then concentrated by ultracentrifugation (20,000 rpm, 2 hours, 4° C. with SW28 swinging bucket rotor [Beckman Coulter]) over a 10% ficoll (HSV-1) or 20% sorbitol (HCMV) cushion. Virus stock titers were determined by plaque assay for HSV-1 or tissue culture infectious dose (TCID50) for HCMV and infections were performed at a multiplicity of infection (MOI) of 3.
12 hours prior to virus infection or reactivation, cells were treated with either the small molecule drug or DMSO/PBS control at an equivalent volume. […] For infection cycles lasting longer than 24 hours, small molecule drugs were re-added to the cell culture medium every 24 hours. Upon collection, cells were rinsed with PBS, scraped into a microcentrifuge tube, pelleted by centrifugation, and rinsed again with PBS.

## Nc1ccn(C[C@@H](CO)OCP(=O)(O)O)c(=O)n1 [CDV, cidofovir]
  HCMV late gene expression: reduction
1 μM
  HCMV protein levels across all temporal classes of gene expression: substantial decreases
  impact on HCMV IE genes compared to other gene classes: relatively less impacted
1 μM, across all time points
  decrease of HCMV protein UL54: less than 20%
1 μM, by 72 HPI, in more than 85% of the proteins monitored
  decrease in HCMV protein levels compared to PBS control: at least 35%
1 μM, by 120 HPI
  decrease in abundance of HCMV IE protein UL122: ~70%
DE, timepoint 24
  DBP (P17147) protein, numerical value of heatmap FIG. 6C: 0.04283
  HELI (P16736) protein, numerical value of heatmap FIG. 6C: 0.1024
  NEC2 (P16791) protein, numerical value of heatmap FIG. 6C: 0.0159
  RIR1 (P16782) protein, numerical value of heatmap FIG. 6C: 0.04961
  UL26 (P16762) protein, numerical value of heatmap FIG. 6C: 0.04954
  UL32 (P08318) protein, numerical value of heatmap FIG. 6C: 0.01616
  UL34 (P16812) protein, numerical value of heatmap FIG. 6C: 0.05376
  UL38 (P16779) protein, numerical value of heatmap FIG. 6C: 0.5007
  UL44 (P16790) protein, numerical value of heatmap FIG. 6C: 0.0325
  UL54 (P08546) protein, numerical value of heatmap FIG. 6C: 0.2154
  UL71 (P16823) protein, numerical value of heatmap FIG. 6C: 0.2978
  UL78 (P16751) protein, numerical value of heatmap FIG. 6C: 0.1834
  UL84 (P16727) protein, numerical value of heatmap FIG. 6C: 0.0827
  UL96 (P16787) protein, numerical value of heatmap FIG. 6C: 0.339
  UL97 (P16788) protein, numerical value of heatmap FIG. 6C: 0.1685
  UL98 (P16789) protein, numerical value of heatmap FIG. 6C: 0.1785
  UL102 (P16827) protein, numerical value of heatmap FIG. 6C: 0.2917
  UL112/UL113 (P17151) protein, numerical value of heatmap FIG. 6C: 0.3345
  UL114 (P16769) protein, numerical value of heatmap FIG. 6C: 0.3025
  UL119/UL118 (P16739) protein, numerical value of heatmap FIG. 6C: 0.07541
  UL128 (P16837) protein, numerical value of heatmap FIG. 6C: 0.1472
  US8 (P09730) protein, numerical value of heatmap FIG. 6C: 0.3317
  US9 (P09729) protein, numerical value of heatmap FIG. 6C: 0.2308
  US12 (P09721) protein, numerical value of heatmap FIG. 6C: 0.6397
  US13 (P09720) protein, numerical value of heatmap FIG. 6C: 0.2174
  US14 (P09719) protein, numerical value of heatmap FIG. 6C: 0.1903
  US18 (P69334) protein, numerical value of heatmap FIG. 6C: 0.3161
  US22 (P09722) protein, numerical value of heatmap FIG. 6C: 0.1701
  US23 (P09701) protein, numerical value of heatmap FIG. 6C: 0.3435
  US24 (P09700) protein, numerical value of heatmap FIG. 6C: 0.2973
  gB (P06473) protein, numerical value of heatmap FIG. 6C: 0.05133
  sp|P09710|IR01_HCMVA (P09710) protein, numerical value of heatmap FIG. 6C: 0.1514
DE, timepoint 48
  DBP (P17147) protein, numerical value of heatmap FIG. 6C: 0.2386
  HELI (P16736) protein, numerical value of heatmap FIG. 6C: 0.4106
  NEC2 (P16791) protein, numerical value of heatmap FIG. 6C: 0.08567
  RIR1 (P16782) protein, numerical value of heatmap FIG. 6C: 0.1065
  TRM1 (P16724) protein, numerical value of heatmap FIG. 6C: 0.1188
  UL4 (P17146) protein, numerical value of heatmap FIG. 6C: 0.07447
  UL26 (P16762) protein, numerical value of heatmap FIG. 6C: 0.1073
  UL32 (P08318) protein, numerical value of heatmap FIG. 6C: 0.03113
  UL34 (P16812) protein, numerical value of heatmap FIG. 6C: 0.1018
  UL38 (P16779) protein, numerical value of heatmap FIG. 6C: 0.7494
  UL44 (P16790) protein, numerical value of heatmap FIG. 6C: 0.09556
  UL48 (P16785) protein, numerical value of heatmap FIG. 6C: 0.04333
  UL54 (P08546) protein, numerical value of heatmap FIG. 6C: 0.6243
